Reference: US20110230476A1, “PI3 KINASE INHIBITORS AND USES THEREOF” (AVILA THERAPEUTICS, INC., priority 2009, published 2011)
pEC50, pIC50: −log10 of the molar value.

Target: T1, PI3Kα (p110α/p85α) (Homo sapiens, UniProt P42336)
T1 construct: purchased BPS Bioscience (San Diego, Calif.) or Millipore (Billerica, Mass.)
Assay: HTRF assay, potency against active PI3Kα
Assay type: biochemical
Conditions: HTRF; [ATP]=50 μM, [di-C8-PIP2]=10 μM; 30 min pre-incubation; read-out: PI3Kα Inhibition
Outline: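 IC50 came from a variable-slope fit of % inhibition, calculated from the HTRF emission ratio relative to wells with and without enzyme. Reactions with the active enzyme complex ran 30-60 minutes at 25 °C after ATP addition before stop and detection reagents.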

T1 sequence (P42336 whole entry): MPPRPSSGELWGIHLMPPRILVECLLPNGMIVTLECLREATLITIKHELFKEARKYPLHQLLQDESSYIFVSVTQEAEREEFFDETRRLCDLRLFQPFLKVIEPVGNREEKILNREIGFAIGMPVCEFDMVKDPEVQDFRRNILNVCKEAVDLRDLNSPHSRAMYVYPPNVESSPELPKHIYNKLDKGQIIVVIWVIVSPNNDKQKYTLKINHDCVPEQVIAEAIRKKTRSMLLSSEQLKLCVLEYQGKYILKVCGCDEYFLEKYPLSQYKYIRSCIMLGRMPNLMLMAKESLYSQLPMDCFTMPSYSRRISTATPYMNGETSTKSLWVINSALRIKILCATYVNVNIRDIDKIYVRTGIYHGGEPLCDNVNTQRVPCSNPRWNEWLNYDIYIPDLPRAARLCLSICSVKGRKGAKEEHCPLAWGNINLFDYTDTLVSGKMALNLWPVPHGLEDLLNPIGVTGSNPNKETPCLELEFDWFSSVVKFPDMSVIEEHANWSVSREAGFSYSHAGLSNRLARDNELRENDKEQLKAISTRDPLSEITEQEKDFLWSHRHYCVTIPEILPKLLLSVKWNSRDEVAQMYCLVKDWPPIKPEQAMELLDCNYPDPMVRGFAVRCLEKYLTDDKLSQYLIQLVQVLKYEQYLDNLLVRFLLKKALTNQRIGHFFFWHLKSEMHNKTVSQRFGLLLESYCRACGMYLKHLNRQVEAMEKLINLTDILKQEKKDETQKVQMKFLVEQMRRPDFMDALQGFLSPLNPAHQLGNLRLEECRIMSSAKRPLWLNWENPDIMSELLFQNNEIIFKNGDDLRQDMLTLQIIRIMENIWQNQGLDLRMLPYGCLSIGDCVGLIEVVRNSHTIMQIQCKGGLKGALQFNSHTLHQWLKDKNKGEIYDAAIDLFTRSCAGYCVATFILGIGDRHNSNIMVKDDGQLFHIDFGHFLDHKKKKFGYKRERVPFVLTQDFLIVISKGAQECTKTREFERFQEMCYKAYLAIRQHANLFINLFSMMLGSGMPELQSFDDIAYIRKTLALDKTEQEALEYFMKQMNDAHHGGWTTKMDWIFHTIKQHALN
T1 sequence (P27986 whole entry partner): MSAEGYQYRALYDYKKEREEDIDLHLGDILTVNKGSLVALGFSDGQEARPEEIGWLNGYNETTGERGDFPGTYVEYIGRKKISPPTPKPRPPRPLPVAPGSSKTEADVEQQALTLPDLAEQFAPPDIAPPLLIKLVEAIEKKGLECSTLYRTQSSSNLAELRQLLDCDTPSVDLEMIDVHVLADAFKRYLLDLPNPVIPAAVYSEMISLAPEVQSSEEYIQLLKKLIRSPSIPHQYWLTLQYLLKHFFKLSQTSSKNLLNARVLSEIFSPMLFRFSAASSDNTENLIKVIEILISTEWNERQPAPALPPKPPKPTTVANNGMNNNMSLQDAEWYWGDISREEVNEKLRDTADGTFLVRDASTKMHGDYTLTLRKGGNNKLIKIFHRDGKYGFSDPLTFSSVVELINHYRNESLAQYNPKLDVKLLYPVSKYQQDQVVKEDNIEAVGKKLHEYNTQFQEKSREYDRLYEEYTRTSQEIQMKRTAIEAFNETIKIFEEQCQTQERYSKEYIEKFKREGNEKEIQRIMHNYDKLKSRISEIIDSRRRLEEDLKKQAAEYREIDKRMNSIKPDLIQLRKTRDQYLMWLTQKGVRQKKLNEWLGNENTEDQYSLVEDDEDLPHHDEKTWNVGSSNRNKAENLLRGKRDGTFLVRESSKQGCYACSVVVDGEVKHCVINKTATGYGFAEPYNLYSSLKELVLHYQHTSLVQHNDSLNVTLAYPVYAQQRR

SMILES	pIC50
C=CC(=O)Nc1ccc(CCNC(=O)c2cc3nc(-c4cnc(N)nc4)cc(N4CCOCC4)c3s2)cc1 [II-g-1, N-(4-acrylamidophenethyl)-5-(2-aminopyrimidin-5-yl)-7-morpholinothieno[3,2-b]pyridine-2-carboxamide]	6.00 to 7.00
C=CC(=O)N1CCN(Cc2cc3nc(-c4cccc5[nH]ncc45)nc(N4CCOCC4)c3s2)CC1 [II-a-2, 1-(4-((2-(1H-indazol-4-yl)-4-morpholinothieno[3,2-d]pyrimidin-6-yl)methyl)piperazin-1-yl)prop-2-en-1-one]	7.00 to 8.00
CC(C)=CC(=O)CCC(=O)N1CCC(C#Cc2cc(-c3cnc(N)nc3)nc(N3CCOCC3)c2)CC1 [XII-31, 1-(4-((2-(2-aminopyrimidin-5-yl)-6-morpholinopyridin-4-yl)ethynyl)piperidin-1-yl)-6-methylhept-5-ene-1,4-dione]	6.00 to 7.00
C/C(=C\c1ccccc1)C(=O)CCC(=O)N1CCN(Cc2cc3nc(-c4cccc5[nH]ncc45)nc(N4CCOCC4)c3s2)CC1 [II-a-168, (E)-1-(4-((2-(1H-indazol-4-yl)-4-morpholinothieno[3,2-d]pyrimidin-6-yl)methyl)piperazin-1-yl)-5-methyl-6-phenylhex-5-ene-1,4-dione]	6.00 to 7.00
C/C(=C\c1ncc[nH]1)C(=O)CCC(=O)N1CCN(Cc2cc3nc(-c4cccc5[nH]ncc45)nc(N4CCOCC4)c3s2)CC1 [II-a-170, (E)-1-(4-((2-(1H-indazol-4-yl)-4-morpholinothieno[3,2-d]pyrimidin-6-yl)methyl)piperazin-1-yl)-6-(1H-imidazol-2-yl)-5-methylhex-5-ene-1,4-dione]	6.00 to 7.00
CC(C)=CC(=O)C(=O)Nc1ccc(C#Cc2cc(-c3cnc(N)nc3)nc(N3CCOCC3)c2)cc1 [XII-22, N-(4-((2-(2-aminopyrimidin-5-yl)-6-morpholinopyridin-4-yl)ethynyl)phenyl)-4-methyl-2-oxopent-3-enamide]	> 8.00
CCC/C=C/C(=O)CCC(=O)N1CCN(Cc2cc3nc(-c4cccc5[nH]ncc45)nc(N4CCOCC4)c3s2)CC1 [II-a-63, (E)-1-(4-((2-(1H-indazol-4-yl)-4-morpholinothieno[3,2-d]pyrimidin-6-yl)methyl)piperazin-1-yl)non-5-ene-1,4-dione]	> 8.00
C=CC(=O)NCCCC(=O)N1CCN(Cc2cc3nc(-c4cccc5[nH]ncc45)nc(N4CCOCC4)c3s2)CC1 [II-a-20, N-(4-(4-((2-(1H-indazol-4-yl)-4-morpholinothieno[3,2-d]pyrimidin-6-yl)methyl)piperazin-1-yl)-4-oxobutyl)acrylamide]	6.00 to 7.00
C/C=C(\C)C(=O)CCC(=O)N1CCN(Cc2cc3nc(-c4cccc5[nH]ncc45)nc(N4CCOCC4)c3s2)CC1 [II-a-149, (E)-1-(4-((2-(1H-indazol-4-yl)-4-morpholinothieno[3,2-d]pyrimidin-6-yl)methyl)piperazin-1-yl)-5-methylhept-5-ene-1,4-dione]	6.00 to 7.00
C/C=C/C(=O)CCC(=O)N1CCC(n2nc(-c3ccc(OC)c(OC)c3)c3c(N)ncnc32)CC1 [XI-1, (E)-1-(4-(4-amino-3-(3,4-dimethoxyphenyl)-1H-pyrazolo[3,4-d]pyrimidin-1-yl)piperidin-1-yl)hept-5-ene-1,4-dione]	< 6.00
C=CC(=O)NCC(=O)NCc1ccc(-c2cc3nc(-c4cccc5[nH]ncc45)nc(N4CCOCC4)c3s2)cc1 [II-a-128, N-(2-(4-(2-(1H-indazol-4-yl)-4-morpholinothieno[3,2-d]pyrimidin-6-yl)benzylamino)-2-oxoethyl)acrylamide]	6.00 to 7.00
C/C=C/C(=O)CCC(=O)NC1CCN(c2ccc(-c3cc4nc(-c5cccc(O)c5)nc(N5CCOCC5)c4s3)cc2)CC1 [II-a-109, (E)-N-(1-(4-(2-(3-hydroxyphenyl)-4-morpholinothieno[3,2-d]pyrimidin-6-yl)phenyl)piperidin-4-yl)-4-oxohept-5-enamide]	> 8.00
C/C=C/C(=O)CCCC(=O)NCC(=O)N1CC=C(c2cc3nc(-c4cccc5[nH]ncc45)nc(N4CCOCC4)c3s2)CC1 [II-a-61, (E)-N-(2-(4-(2-(1H-indazol-4-yl)-4-morpholinothieno[3,2-d]pyrimidin-6-yl)-5,6-dihydropyridin-1(2H)-yl)-2-oxoethyl)-5-oxooct-6-enamide]	> 8.00
C=CC(=O)Nc1ccc(CCNC(=O)c2cc(-c3cnc(N)nc3C)nc(N3CCOCC3)c2)cc1 [XII-16, N-(4-acrylamidophenethyl)-2-(2-amino-4-methylpyrimidin-5-yl)-6-morpholinoisonicotinamide]	6.00 to 7.00
C=CC(=O)Nc1ccc(C(=O)N2CCC(n3nc(-c4ccc(OC)c(OC)c4)c4c(N)ncnc43)CC2)cc1 [XI-6, N-(4-(4-(4-amino-3-(3,4-dimethoxyphenyl)-1H-pyrazolo[3,4-d]pyrimidin-1-yl)piperidine-1-carbonyl)phenyl)acrylamide]	< 6.00
C=CC(=O)N[C@H]1CC[C@H](C(=O)N2CCN(Cc3cc4nc(-c5cccc6[nH]ncc56)nc(N5CCOCC5)c4s3)CC2)CC1 [II-a-100]	6.00 to 7.00
CC(C)=CC(=O)C(=O)N1CCN(c2ccc(-c3cc(-c4cnc(N)nc4)nc(N4CCOCC4)c3)cn2)CC1 [XII-25, 1-(4-(2′-(2-aminopyrimidin-5-yl)-6′-morpholino-3,4′-bipyridin-6-yl)piperazin-1-yl)-4-methylpent-3-ene-1,2-dione]	7.00 to 8.00
C/C=C/C(=O)CCCC(=O)N1CC=C(c2cc3nc(-c4cccc5[nH]ncc45)nc(N4CCOCC4)c3s2)CC1 [II-a-60, (E)-1-(4-(2-(1H-indazol-4-yl)-4-morpholinothieno[3,2-d]pyrimidin-6-yl)-5,6-dihydropyridin-1(2H)-yl)oct-6-ene-1,5-dione]	7.00 to 8.00
O=C(/C=C/c1ccccc1)CCC(=O)N1CC=C(c2cc3nc(-c4cccc5[nH]ncc45)nc(N4CCOCC4)c3s2)CC1 [II-a-135, (E)-1-(4-(2-(1H-indazol-4-yl)-4-morpholinothieno[3,2-d]pyrimidin-6-yl)-5,6-dihydropyridin-1(2H)-yl)-6-phenylhex-5-ene-1,4-dione]	6.00 to 7.00
C=CC(=O)N1CCN(C2CCC(O)(c3cc4nc(-c5cccc6[nH]ncc56)nc(N5CCOCC5)c4s3)CC2)CC1 (mixture of isomers) [II-a-152, 1-(4-(4-(2-(1H-indazol-4-yl)-4-morpholinothieno[3,2-d]pyrimidin-6-yl)-4-hydroxycyclohexyl)piperazin-1-yl)prop-2-en-1-one]	6.00 to 7.00
C=CC(=O)N[C@H]1CCCC[C@H]1C(=O)N1CCN(Cc2cc3nc(-c4cccc5[nH]ncc45)nc(N4CCOCC4)c3s2)CC1 [II-a-96]	6.00 to 7.00
C/C=C/C(=O)CCC(=O)NCc1ccc(-c2cc3nc(-c4cccc(O)c4)nc(N4CCOCC4)c3s2)cc1 [II-a-80, (E)-N-(4-(2-(3-hydroxyphenyl)-4-morpholinothieno[3,2-d]pyrimidin-6-yl)benzyl)-4-oxohept-5-enamide]	> 8.00
C/C=C/C(=O)CCC(=O)N1CCc2cc(-c3cc4nc(-c5cccc(O)c5)nc(N5CCOCC5)c4s3)ccc2C1 [II-a-108, (E)-1-(6-(2-(3-hydroxyphenyl)-4-morpholinothieno[3,2-d]pyrimidin-6-yl)-3,4-dihydroisoquinolin-2(1H)-yl)hept-5-ene-1,4-dione]	> 8.00
CC(C)=CC(=O)C1(C(=O)N2CCC(C#Cc3cc(-c4cnc(N)nc4)nc(N4CCOCC4)c3)CC2)CC1 [XII-33, 1-(1-(4-((2-(2-aminopyrimidin-5-yl)-6-morpholinopyridin-4-yl)ethynyl)piperidine-1-carbonyl)cyclopropyl)-3-methylbut-2-en-1-one]	6.00 to 7.00
C=CC(=O)Nc1ccc(CN2CCC(n3ncc4c(N5CCOCC5)nc(-c5ccc(NC(=O)NC)cc5)nc43)CC2)cc1 [VII-5, N-(4-((4-(6-(4-(3-methylureido)phenyl)-4-morpholino-1H-pyrazolo[3,4-d]pyrimidin-1-yl)piperidin-1-yl)methyl)phenyl)acrylamide]	6.00 to 7.00
CC(C)=CC(=O)C1(C(=O)N2CCC3(CC2)CN(c2cc(-c4cnc(N)nc4)nc(N4CCOCC4)c2)C3)CC1 [XII-38, 1-(1-(2-(2-(2-aminopyrimidin-5-yl)-6-morpholinopyridin-4-yl)-2,7-diazaspiro[3.5]nonane-7-carbonyl)cyclopropyl)-3-methylbut-2-en-1-one]	6.00 to 7.00

Tested on: Phospho-Akt(Ser473)
Assay: Dose response in SKOV3 cells as determined by in-cell Western
Assay type: cell-based
Conditions: Homo sapiens, SK-OV-3; SKOV3 cells, 1 hr; read-out: pAKT Inhibition in cell Western
Method: Dose Response in SKOV3 Cells as Determined by in-Cell Western
Twenty four hours later the media was removed and replaced with 100 ul media containing test compound or control compound and cells were returned to the incubator for 1 hr. At the end of the hour, the media was removed and the cells were washed once with PBS, then fixed for 20 minutes at room temperature in 4% formaldehyde in PBS. The formaldehyde was removed and cells were washed 5 times for 5 minutes with 100 ul of Permeabilization Buffer (PBS+0.1% Triton X-100) at room temperature with gentle shaking. The last wash was removed and replaced with 150 ul of Odyssey Blocking Buffer (Li-Cor, Lincoln, Nebr.) and incubated for 90 minutes at room temperature with gentle shaking.
The Blocking Buffer was then replaced with 50 ul of primary antibody mix (rabbit anti-Phospho-Akt(Ser473) at 1:100 (Cell Signaling Technology, Boston, Mass.) and mouse anti-tubulin at 1:5000 (Sigma Aldrich, St. Louis, Mo.) diluted in Odyssey Blocking Buffer) and incubated overnight at room temperature with gentle shaking.
The next morning, the antibody mix was removed and the wells were washed 5 times for 5 minutes with PBS+0.1% Tween-20. The last wash was replaced with 50 ul of secondary antibody mix (goat anti-rabbit-IRDye-680 and goat anti-mouse-IRDye-800 (Li-Cor), both diluted 1:1000 in Odyssey Blocking Buffer+0.2% Tween-20) and incubated for 1 hour at room temperature with gentle shaking. The antibody mix was removed and the wells were washed 5 times for 5 minutes in PBS+0.1% Tween-20, then 1 time with ddH2O.
The plates were scanned on an Odyssey machine (Li-Cor) with a 3 mm focus offset at an intensity of 8 in both channels and the data was analyzed using the Odyssey software.

SMILES	pEC50
COc1c(OCCOCCNS(C)(=O)=O)ccc2c1N=C(NC(=O)c1cccnc1)N1CCN=C21 [IX-ref]	7.00 to 8.00
C=CC(=O)Nc1ccc(CCNC(=O)c2cc3nc(-c4cnc(N)nc4)cc(N4CCOCC4)c3s2)cc1 [II-g-1, N-(4-acrylamidophenethyl)-5-(2-aminopyrimidin-5-yl)-7-morpholinothieno[3,2-b]pyridine-2-carboxamide]	7.00 to 8.00
CNC(=O)Nc1ccc(-c2nc(N3CCOCC3)c3cnn(C4CCN(C(=O)OC)CC4)c3n2)cc1 [VII-ref]	7.00 to 8.00
COc1ncc(-c2ccc3nccc(-c4ccncc4)c3c2)cc1NS(=O)(=O)c1ccc(F)cc1F [X-ref]	≥ 8.00
Nc1ncnc2c1c(-c1cnc3[nH]ccc3c1)nn2C1CCCC1 [XI-ref]	7.00 to 8.00
